Experimental data published in ChEMBL document CHEMBL1138706, “Synthesis and biological evaluation of novel taxoids designed for targeted delivery to tumors” (Bioorg Med Chem Lett, 2004).

Key:
[1] = system: MCF7; experiment: inhibitory concentration against the growth of breast cancer MCF-7 cell line after 72 hr of exposure; assay type: functional, cell-based; details: Homo sapiens, MCF7, 72 h
[2] = system: A549; experiment: inhibitory concentration against the growth of Non-small-cell lung carcinoma A549 cell line after 72 hr of exposure; assay type: functional, cell-based; details: Homo sapiens, A549, 72 h

SMILES	IC50 [1]	IC50 [2]
COc1ccc(OC)c(C(=O)O[C@H]2[C@@H]3[C@]4(OC(C)=O)CO[C@@H]4C[C@H](O)[C@@]3(C)C(=O)[C@H](OC(C)=O)C3=C(C)[C@@H](OC(=O)[C@H](O)[C@@H](NC(=O)OC(C)(C)C)c4ccccc4)C[C@]2(O)C3(C)C)c1	60 nM	50 nM
COc1ccc(OC)c(C(=O)O[C@H]2[C@@H]3[C@]4(OC(C)=O)CO[C@@H]4C[C@H](O)[C@@]3(C)C(=O)[C@H](OC(C)=O)C3=C(C)[C@@H](OC(=O)[C@H](O)[C@@H](NC(=O)c4ccco4)c4cccs4)C[C@]2(O)C3(C)C)c1	60 nM	50 nM
COc1ccc(OC)c(C(=O)O[C@H]2[C@@H]3[C@]4(OC(C)=O)CO[C@@H]4C[C@H](O)[C@@]3(C)C(=O)[C@H](OC(C)=O)C3=C(C)[C@@H](OC(=O)[C@H](O)[C@@H](NC(=O)c4ccco4)c4ccco4)C[C@]2(O)C3(C)C)c1	120 nM	90 nM
COc1ccc(OC)c(C(=O)O[C@H]2[C@@H]3[C@]4(OC(C)=O)CO[C@@H]4C[C@H](O)[C@@]3(C)C(=O)[C@H](OC(C)=O)C3=C(C)[C@@H](OC(=O)[C@H](O)[C@H](C=C(C)C)NC(=O)c4cccs4)C[C@]2(O)C3(C)C)c1	30 nM	40 nM
COc1ccc(OC)c(C(=O)O[C@H]2[C@@H]3[C@]4(OC(C)=O)CO[C@@H]4C[C@H](O)[C@@]3(C)C(=O)[C@H](OC(C)=O)C3=C(C)[C@@H](OC(=O)[C@H](O)[C@@H](NC(=O)C=C(C)C)c4ccco4)C[C@]2(O)C3(C)C)c1	40 nM	30 nM
COc1ccc(OC)c(C(=O)O[C@H]2[C@@H]3[C@]4(OC(C)=O)CO[C@@H]4C[C@H](O)[C@@]3(C)C(=O)[C@H](OC(C)=O)C3=C(C)[C@@H](OC(=O)[C@H](O)[C@@H](NC(=O)OC(C)(C)C)c4ccco4)C[C@]2(O)C3(C)C)c1	40 nM	30 nM
COc1ccc(OC)c(C(=O)O[C@H]2[C@@H]3[C@]4(OC(C)=O)CO[C@@H]4C[C@H](O)[C@@]3(C)C(=O)[C@H](OC(C)=O)C3=C(C)[C@@H](OC(=O)[C@H](O)[C@H](C=C(C)C)NC(=O)OC(C)(C)C)C[C@]2(O)C3(C)C)c1	40 nM	40 nM
CC(=O)O[C@H]1C(=O)[C@@]2(C)[C@H]([C@H](OC(=O)c3ccccc3)[C@]3(O)C[C@H](OC(=O)[C@H](O)[C@@H](NC(=O)c4ccccc4)c4ccccc4)C(C)=C1C3(C)C)[C@]1(OC(C)=O)CO[C@@H]1C[C@@H]2O [PACLITAXEL]	800 nM	1700 nM
C/C=C/C(=O)N[C@@H](c1ccco1)[C@@H](O)C(=O)O[C@H]1C[C@@]2(O)[C@@H](OC(=O)c3cc(OC)ccc3OC)[C@@H]3[C@]4(OC(C)=O)CO[C@@H]4C[C@H](O)[C@@]3(C)C(=O)[C@H](OC(C)=O)C(=C1C)C2(C)C	130 nM	160 nM
CC(=O)O[C@@]12CO[C@@H]1C[C@H](O)[C@@]1(C)C(=O)[C@H](O)C3=C(C)[C@@H](OC(=O)[C@H](O)[C@@H](NC(=O)OC(C)(C)C)c4ccccc4)C[C@@](O)([C@@H](OC(=O)c4ccccc4)[C@H]21)C3(C)C [DOCETAXEL]	1000 nM	1000 nM
COc1ccc(OC)c(C(=O)O[C@H]2[C@@H]3[C@]4(OC(C)=O)CO[C@@H]4C[C@H](O)[C@@]3(C)C(=O)[C@H](OC(C)=O)C3=C(C)[C@@H](OC(=O)[C@H](O)[C@H](C=C(C)C)NC(=O)C=C(C)C)C[C@]2(O)C3(C)C)c1	20 nM	20 nM
COc1ccc(OC)c(C(=O)O[C@H]2[C@@H]3[C@]4(OC(C)=O)CO[C@@H]4C[C@H](O)[C@@]3(C)C(=O)[C@H](OC(C)=O)C3=C(C)[C@@H](OC(=O)[C@H](O)[C@@H](NC(=O)c4cccs4)c4cccs4)C[C@]2(O)C3(C)C)c1	30 nM	30 nM
CCCCOC(=O)N[C@@H](C=C(C)C)[C@@H](O)C(=O)O[C@H]1C[C@@]2(O)[C@@H](OC(=O)c3cc(OC)ccc3OC)[C@@H]3[C@]4(OC(C)=O)CO[C@@H]4C[C@H](O)[C@@]3(C)C(=O)[C@H](OC(C)=O)C(=C1C)C2(C)C	30 nM	40 nM
COc1ccc(OC)c(C(=O)O[C@H]2[C@@H]3[C@]4(OC(C)=O)CO[C@@H]4C[C@H](O)[C@@]3(C)C(=O)[C@H](OC(C)=O)C3=C(C)[C@@H](OC(=O)[C@H](O)[C@H](C=C(C)C)NC(=O)c4ccccc4)C[C@]2(O)C3(C)C)c1	40 nM	40 nM
CCCCOC(=O)N[C@@H](c1cccs1)[C@@H](O)C(=O)O[C@H]1C[C@@]2(O)[C@@H](OC(=O)c3cc(OC)ccc3OC)[C@@H]3[C@]4(OC(C)=O)CO[C@@H]4C[C@H](O)[C@@]3(C)C(=O)[C@H](OC(C)=O)C(=C1C)C2(C)C	40 nM	40 nM
COc1ccc(OC)c(C(=O)O[C@H]2[C@@H]3[C@]4(OC(C)=O)CO[C@@H]4C[C@H](O)[C@@]3(C)C(=O)[C@H](OC(C)=O)C3=C(C)[C@@H](OC(=O)[C@H](O)[C@H](C=C(C)C)NC(=O)c4ccco4)C[C@]2(O)C3(C)C)c1	30 nM	60 nM
COc1ccc(OC)c(C(=O)O[C@H]2[C@@H]3[C@]4(OC(C)=O)CO[C@@H]4C[C@H](O)[C@@]3(C)C(=O)[C@H](OC(C)=O)C3=C(C)[C@@H](OC(=O)[C@H](O)[C@@H](NC(=O)c4cccs4)c4ccco4)C[C@]2(O)C3(C)C)c1	60 nM	100 nM
COc1ccc(OC)c(C(=O)O[C@H]2[C@@H]3[C@]4(OC(C)=O)CO[C@@H]4C[C@H](O)[C@@]3(C)C(=O)[C@H](OC(C)=O)C3=C(C)[C@@H](OC(=O)[C@H](O)[C@@H](NC(=O)c4ccccc4)c4ccco4)C[C@]2(O)C3(C)C)c1	210 nM	220 nM
C/C=C/C(=O)N[C@@H](c1cccs1)[C@@H](O)C(=O)O[C@H]1C[C@@]2(O)[C@@H](OC(=O)c3cc(OC)ccc3OC)[C@@H]3[C@]4(OC(C)=O)CO[C@@H]4C[C@H](O)[C@@]3(C)C(=O)[C@H](OC(C)=O)C(=C1C)C2(C)C	160 nM	180 nM
COc1ccc(OC)c(C(=O)O[C@H]2[C@@H]3[C@]4(OC(C)=O)CO[C@@H]4C[C@H](O)[C@@]3(C)C(=O)[C@H](OC(C)=O)C3=C(C)[C@@H](OC(=O)[C@H](O)[C@@H](NC(=O)OC(C)(C)C)c4cccs4)C[C@]2(O)C3(C)C)c1	30 nM	30 nM
C/C=C/C(=O)N[C@@H](C=C(C)C)[C@@H](O)C(=O)O[C@H]1C[C@@]2(O)[C@@H](OC(=O)c3cc(OC)ccc3OC)[C@@H]3[C@]4(OC(C)=O)CO[C@@H]4C[C@H](O)[C@@]3(C)C(=O)[C@H](OC(C)=O)C(=C1C)C2(C)C	10 nM	30 nM
COc1ccc(OC)c(C(=O)O[C@H]2[C@@H]3[C@]4(OC(C)=O)CO[C@@H]4C[C@H](O)[C@@]3(C)C(=O)[C@H](OC(C)=O)C3=C(C)[C@@H](OC(=O)[C@H](O)[C@@H](NC(=O)c4ccccc4)c4cccs4)C[C@]2(O)C3(C)C)c1	> 3000 nM	> 3000 nM
COc1ccc(OC)c(C(=O)O[C@H]2[C@@H]3[C@]4(OC(C)=O)CO[C@@H]4C[C@H](O)[C@@]3(C)C(=O)[C@H](OC(C)=O)C3=C(C)[C@@H](OC(=O)[C@H](O)[C@@H](NC(=O)C=C(C)C)c4cccs4)C[C@]2(O)C3(C)C)c1	50 nM	40 nM
CCCCOC(=O)N[C@@H](c1ccco1)[C@@H](O)C(=O)O[C@H]1C[C@@]2(O)[C@@H](OC(=O)c3cc(OC)ccc3OC)[C@@H]3[C@]4(OC(C)=O)CO[C@@H]4C[C@H](O)[C@@]3(C)C(=O)[C@H](OC(C)=O)C(=C1C)C2(C)C	30 nM	30 nM
COc1ccc(OC)c(C(=O)O[C@H]2[C@@H]3[C@]4(OC(C)=O)CO[C@@H]4C[C@H](O)[C@@]3(C)C(=O)[C@H](OC(C)=O)C3=C(C)[C@@H](OC(=O)[C@H](O)[C@@H](NC(=O)c4ccccc4)c4ccccc4)C[C@]2(O)C3(C)C)c1	30 nM	130 nM
